Assay results taken from patent publication US20230149420A1, “ANTI-INFLAMMATORY IMMUNOENHANCER” (SCENT SCIENCE INTERNATIONAL INC., priority 2020, published 2023).

Tests used:
Type in all cases: in vivo, C57/BL6 mice
Conditions in all cases: 200 μl of 1% solution i.p., blood 16 hr later, vs saline
[1] = test system: neutrophils in the whole blood cells; assay: ratio of neutrophils in whole blood cells, Siemens Advia 120 (Examples 12, 13)
Protocol: About 3-month-old C57/BL6 mice were intraperitoneally injected with 200 μl of saline (control) or 1% solution of respective compounds (dissolved in saline). Blood was collected 16 hr later, and the ratio of neutrophils in the whole blood cells was measured using Siemens Advia 120.

[2] = test system: neutrophils in the peripheral blood; assay: number of neutrophils in peripheral blood, Siemens Advia 120 (Examples 4, 5)
Protocol: About 3-month-old C57/BL6 mice were intraperitoneally injected with 200 μl of saline (control) or 1% solution of respective compounds (dissolved in saline). Blood was collected 16 hr later, and the number of neutrophils in the peripheral blood was measured using Siemens Advia 120.

[3] = test system: monocytes in the whole blood cells; assay: ratio of monocytes in whole blood cells, Siemens Advia 120 (Examples 10, 11)
Protocol: About 3-month-old C57/BL6 mice were intraperitoneally injected with 200 μl of saline (control) or 1% solution of respective compounds (dissolved in saline). Blood was collected 16 hr later, and the ratio of monocytes in the whole blood cells was measured using Siemens Advia 120.
About 3-month-old C57/BL6 mice were intraperitoneally injected with 200 μl of saline (control) or 1% allyl isothiocyanate solution (dissolved in saline). Blood was collected 16 hr later, and the ratio of monocytes in the whole blood cells was measured using Siemens Advia 120.

[4] = test system: basophils in the whole blood cells; assay: ratio of basophils in whole blood cells, Siemens Advia 120 (Example 14)
Protocol: About 3-month-old C57/BL6 mice were intraperitoneally injected with 200 μl of saline (control) or 1% solution of respective compounds (dissolved in saline). Blood was collected 16 hr later, and the ratio of basophils in the whole blood cells was measured using Siemens Advia 120.

[5] = test system: monocytes in the peripheral blood; assay: number of monocytes in peripheral blood, Siemens Advia 120 (Examples 6, 7)
Protocol: About 3-month-old C57/BL6 mice were intraperitoneally injected with 200 μl of saline (control) or 1% solution of respective compounds (dissolved in saline). Blood was collected 16 hr later, and the number of monocytes in the peripheral blood was measured using Siemens Advia 120.
About 3-month-old C57/BL6 mice were intraperitoneally injected with 200 μl of saline (control) or 1% allyl isothiocyanate solution (dissolved in saline). Blood was collected 16 hr later, and the number of monocytes in the peripheral blood was measured using Siemens Advia 120.

Row | Compound | ratio of neutrophils in the whole blood cells [1] | neutrophils in the peripheral blood (number) [2] | ratio of monocytes in the whole blood cells [3] | ratio of basophils in the whole blood cells [4] | number of monocytes in the peripheral blood [5]
1 | CC(C)Cc1nccs1 [2-Isobutylthiazole] | increases | – | – | – | –
2 | O=C1CSc2ccccc2N1 [2H-1,4-benzothiazin-3(4H)one] | increases | increase | – | – | –
3 | S=C=NCc1ccccc1 [Benzyl isothiocyanate] | increases | increase | – | – | –
4 | CCc1nccnc1C(C)=O [2-Acetyl-3-ethylpyrazine] | increases | – | increases | increases | –
5 | CC(=O)c1sc(C)nc1C [5-Acetyl-2,4-dimethylthiazole] | increases | increase | – | increases | –
6 | Cc1ccsc1 [3-Methylthiophene] | – | – | – | increases | –
7 | CSc1nc2ccccc2s1 [2-(Methylthio)benzothiazole] | increases | increase | – | – | –
8 | CCc1nccnc1CC [2,3-Diethylpyrazine] | increases | increase | – | – | –
9 | CC1(C)NCCS1 [2,2-Dimethylthiazolidine] | increases | – | – | increases | –
10 | c1coc(Cn2cccc2)c1 [1-Furfurylpyrrole] | increases | – | – | – | –
11 | CC1NCCSC1C (centres unmarked) [2,3-Dimethylthiomorpholine] | – | – | increases | – | –
12 | CC(=O)c1ccncc1 [4-Acetylpyridine] | increases | increase | increases | – | increase
13 | Cc1csc(C(C)C)n1 [2-Isopropyl-4-methylthiazole] | increases | – | – | increases | –
14 | CCc1ccco1 [2-Ethylfuran] | – | – | – | increases | –
15 | CC1=NC(CC(C)C)SC1C (centres unmarked) [2-Isobutyl-4,5-dimethyl-3-thiazoline] | – | increase | – | – | –
16 | CCCCCCc1cccs1 [2-Hexylthiophene] | increases | increase | – | – | –
17 | C1CSCCN1 [Thiomorpholine] | – | – | increases | – | –
18 | C=CCSC1=NCCS1 [2-(Allylthio)-2-thiazoline] | – | – | increases | – | increase
19 | CC(=O)c1nccs1 [2-Acetylthiazole] | increases | – | – | increases | –
20 | CCc1ccc[nH]1 [2-Ethylpyrrole] | increases | – | – | increases | –
21 | Clc1ccsc1 [3-Chlorothiophene] | increases | increase | increases | increases | –
22 | CSCCCN=C=S [3-(Methylthio)propyl isothiocyanate] | – | increase | – | – | –
23 | 2-Methyl-(3 or 5 or 6)-methylthio pyrazine [2-Methyl-(3 or 5 or 6)-methylthio pyrazine (mixture of isomers)] | increases | – | increases | – | –
24 | O=C1CSC(=O)N1 [Thiazolidine-2,4-dione] | – | increase | – | – | –
25 | Cc1c[nH]c(C)c1 [2,4-Dimethylpyrrole] | increases | – | – | – | –

Row | Compound | ratio of neutrophils in the whole blood cells [1] | neutrophils in the peripheral blood (number) [2] | ratio of monocytes in the whole blood cells [3] | ratio of basophils in the whole blood cells [4] | number of monocytes in the peripheral blood [5]
26 | Cc1cccs1 [2-Methylthiophene] | increases | – | – | – | –
27 | Cc1cc2ccccc2[nH]1 [2-Methylindole] | – | – | increases | – | –
28 | C=CCCCN=C=S [4-Pentenyl Isothiocyanate] | increases | increase | – | – | –
29 | c1ccc2sccc2c1 [Benzothiophene] | increases | increase | – | – | –
30 | CC1CNCCS1 (centres unmarked) [2-Methylthiomorpholine] | increases | increase | – | – | –
31 | Cc1ncsc1C [4,5-Dimethylthiazole] | increases | increase | increases | – | –
32 | CC(=O)c1cc(C)oc1C [3-Acetyl-2,5-dimethylfuran] | – | – | – | increases | –
33 | CCOc1nccs1 [2-Ethoxythiazole] | increases | increase | increases | – | –
34 | CSC1CSC=N1 (centres unmarked) [4-(Methylthio)-2-thiazoline] | increases | increase | increases | – | –
35 | CSC1=NCCS1 [2-(Methylthio)-2-thiazoline] | increases | increase | – | – | –
36 | CCC(=O)c1cccs1 [2-Propionyl thiophene] | increases | – | – | – | –
37 | CC(=O)c1cccn1C [2-Acetyl-1-methylpyrrole] | increases | increase | – | – | –
38 | c1cscn1 [Thiazole] | increases | – | – | – | –
39 | Cc1nc(C)c(C)s1 [2,4,5-Trimethylthiazole] | increases | – | – | – | –
40 | C1CCCNCC1 [Azepane] | increases | increase | increases | – | –
41 | Cc1cc[nH]c1 [3-Methylpyrrole] | increases | – | – | – | –
42 | Cc1nc(C(C)(C)C)cs1 [4-tert-Butyl-2-methylthiazole] | – | increase | – | – | –
43 | CCc1cccs1 [2-Ethylthiophene] | – | increase | – | – | –
44 | CC(=O)c1cccnc1 [3-Acetylpyridine] | increases | increase | – | – | –
45 | CC(C)N=C=S [Isopropyl isothiocyanate] | – | increase | – | – | –
46 | C=C(C)CN=C=S [Methallyl isothiocyanate] | increases | increase | – | – | –
47 | CC(=O)c1ccc[nH]1 [2-Acetylpyrrole] | increases | increase | – | – | –
48 | Clc1nccs1 [2-Chlorothiazole] | increases | – | – | increases | –
49 | Cc1nccs1 [2-Methylthiazole] | increases | – | – | increases | –
50 | CC(=O)c1cc(C)sc1C [3-Acetyl-2,5-dimethylthiophene] | increases | increase | increases | increases | –
